The record followed here is PubChem BioAssay AID2060356 (Molecular Pharmacology Branch, DTP, NCI, 2025).

Structures are written as SMILES. Values joined by “and” are separate entries in the source; they are usually repeats but may differ in a detail not shown here. Equal entries are not always repeated.

This experiment relates to PDC tumor spheroids with HUVEC/MSC, viability. Kind of experiment: Anticancer human tumor 439559-082-T-J2-PDC patient-derived colon adenocarcinoma cell line growth inhibition [TAK]. The note with it: for viability, T/C: stronger effect = lower value. The source says:
Combinatorial screen of targeted agents with TAK-243 and ipatasertib in multi-cell type tumor spheroids
A high-throughput screen of multi-cell type tumor spheroids was designed to identify active combinations of targeted small molecules and TAK-243 or ipatasertib. Complex spheroids include a stromal component modeled by human endothelial cells (HUVEC) and fibroblasts modeled by human mesenchymal stem cells (MSCs). The concentration ranges selected for each drug and investigational agent were based upon clinically achievable concentrations if the clinical Cmax of the agent was known.
Compounds. The drugs and investigational agents: TAK-243 (785004), ipatasertib (767898), everolimus (733504), selumetinib (741078), bortezomib (756655), trametinib (758246), ixazomib (758254), vemurafenib (761431), dabrafenib (764134), sapanisertib (764658), alpelisib (765974), and copanlisib (816437), were obtained from the National Cancer Institute (NCI) Developmental Therapeutics Program Chemical Repository. The FDA-approved anticancer drug set is available from the NCI Developmental Therapeutics Program. […] The stock solutions were prepared in dimethyl sulfoxide (DMSO, Sigma-Aldrich, St. Louis, MO, cat. D2650) at 800-fold the tested concentration and stored at -70 degrees C prior to their use. All drugs and investigational agents were tested over a range starting from a high concentration at or near the clinical Cmax and decreasing in half-log increments. If the clinical Cmax for an agent had not been determined, the highest concentration tested was 10 microM.
NCI60 Cell Culture. NCI60 cell lines were obtained from the NCI Developmental Therapeutics Program Tumor Repository. For each lot of cells, the Repository performed Applied Biosystems AmpFLSTR Identifiler testing with PCR amplification to confirm consistency with the published Identifier STR profile for each cell line. Cells were kept in continuous culture for no more than 20 passages. The optimal seeding densities for each of the cell lines at each time point assessed were determined prior to performing the concentration response studies. Briefly, the NCI60 human tumor lines were grown as monolayers in RPMI 1640 medium supplemented with 10% FBS and 2 mmol/L L-glutamine.
An additional 2 lines were from the NCI60 cell line panel including melanomas, MALME-3M and SK-MEL-2. Pooled donor human umbilical vein endothelial cells (HUVEC, Lonza, cat. CC-2519) and human mesenchymal stem cells (hMSC, Lonza, cat. PT-2501) were purchased from Lonza (Walkersville, MD).
PDMR cell lines were grown in complete medium (DC medium): Dulbecco's modified Eagle's medium (DMEM)/F12 supplemented with 5% fetal bovine serum (FBS), 2 mM L-glutamine, 100 U/mL penicillin and 100 µg/ml streptomycin, 0.4 µg/ml hydrocortisone, 10 ng/ml epidermal growth factor (EGF) recombinant human protein, 24 µg/mL adenine, and 0.1 mg/mL primocin. During culture from frozen stock vials, PDMR cells were cultured in the same medium containing 10 µM Y-27632 (see Table 3). The PDCs were cultured in complete DMEM/F12 media without 10 microM Y-27632 dihydrochloride for at least two passages prior to the screen. The pooled donor HUVEC and hMSC were cultured in endothelial cell growth medium 2 (PromoCell, Heidelberg, Germany, cat. C-22011) and mesenchymal stem cell growth medium 2 (PromoCell, cat. C-28009), respectively. For all experiments, HUVEC and hMSC were used at passages </=5.
For the pre-screen, cell seeding densities were determined from a titration spanning the range from 5,000 to 313 cells per well. The mct-spheroids including 60% malignant cells, 25% HUVEC and 15% MSC dispensed as a mixture into U-bottom Ultra-Low Attachment 384-well plates (Corning, NY)
High-throughput Drug Combination Screening.
Prior to their inoculation into 384-well plates, malignant cells, HUVEC, and hMSC were removed from T flasks using TrypLE express (Thermo Fisher Scientific, cat. 12605036) and harvested by centrifugation for 5 min at 233 x g. […]

The mark [1] stands for this setting: curve of first compound, second compound 0.3 µM.
Where [2] appears, read: curve of first compound, second compound 0.949 µM.
[3] abbreviates: curve of first compound, second compound 3 µM.
Where [4] appears, read: curve of first compound, second compound 9.49 µM.
Where [5] appears, read: curve of first compound, second compound 30 µM.
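Further: spheroids exposed to drugs for seven days before readout.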

For the compound `CC(C)NCC(C(=O)N1CCN(c2ncnc3c2C(C)CC3O)CC1)c1ccc(Cl)cc1` (stereo not given), the viability, T/C (compound 0.3 µM) is 101% [middle of 10 runs]; the viability, T/C (compound 0.949 µM) is 94% [middle of 10 runs]; the viability, T/C (compound 3 µM) is 83.6% [middle of 10 runs]; the viability, T/C (compound 9.49 µM) was 80.9% [middle of 10 runs]; the viability, T/C (compound 30 µM) was 85.8% [middle of 10 runs]. Also, the IC50 (compound alone, run of 02/28/2020) is over 30 µM.
Consider `CCCS(=O)(=O)Nc1ccc(F)c(C(=O)c2c[nH]c3ncc(-c4ccc(Cl)cc4)cc23)c1F`, for which the viability, T/C was 114% and 106% (compound 0.316 µM); 109% and 102% (compound 1 µM); 97.3% and 102% (compound 3.16 µM); 87.2% and 71.7% (compound 10 µM); 103% and 94.9% (compound 31.6 µM); 93.9% and 95.7% (compound 100 µM). Besides, the IC50 (curve of compound) is over 100 µM.
As to `Cc1nc(NC(=O)N2CCCC2C(N)=O)sc1-c1ccnc(C(C)(C)C(F)(F)F)c1` (stereo not given) + CC(C)NCC(C(=O)N1CCN(c2ncnc3c2C(C)CC3O)CC1)c1ccc(Cl)cc1, the IC50 is, setting by setting: under setting [1], over 10 µM; under setting [2], over 10 µM; under setting [3], over 10 µM; under setting [4], over 10 µM; under setting [5], over 10 µM. Moreover, the viability, T/C is 106% (second compound 0.3 µM, first compound 0.0316 µM); 98.8% (second compound 0.3 µM, first compound 0.1 µM); 85% (second compound 0.3 µM, first compound 0.316 µM); 86.8% (second compound 0.3 µM, first compound 1 µM); 80.9% (second compound 0.3 µM, first compound 3.16 µM); 69.6% (second compound 0.3 µM, first compound 10 µM). Further, the viability, T/C runs as follows: (second compound 0.949 µM, first compound 0.0316 µM) 109%; (second compound 0.949 µM, first compound 0.1 µM) 102%; (second compound 0.949 µM, first compound 0.316 µM) 86.3%; (second compound 0.949 µM, first compound 1 µM) 85.8%; (second compound 0.949 µM, first compound 3.16 µM) 80.1%; (second compound 0.949 µM, first compound 10 µM) 70%. Also, the viability, T/C is, setting by setting: (second compound 3 µM, first compound 0.0316 µM) 98.8%; (second compound 3 µM, first compound 0.1 µM) 102%; (second compound 3 µM, first compound 0.316 µM) 85.5%; (second compound 3 µM, first compound 1 µM) 85.6%; (second compound 3 µM, first compound 3.16 µM) 78.5%; (second compound 3 µM, first compound 10 µM) 82.3%. For the same compound, the viability, T/C by setting is: (second compound 9.49 µM, first compound 0.0316 µM) 95.8%; (second compound 9.49 µM, first compound 0.1 µM) 91.4%; (second compound 9.49 µM, first compound 0.316 µM) 85%; (second compound 9.49 µM, first compound 1 µM) 83.1%; (second compound 9.49 µM, first compound 3.16 µM) 75.7%; (second compound 9.49 µM, first compound 10 µM) 74.2%. Also, the viability, T/C is 86.4% (second compound 30 µM, first compound 0.0316 µM); 91.7% (second compound 30 µM, first compound 0.1 µM); 84.9% (second compound 30 µM, first compound 0.316 µM); 79% (second compound 30 µM, first compound 1 µM); 81.3% (second compound 30 µM, first compound 3.16 µM); 71.5% (second compound 30 µM, first compound 10 µM).
Take `COc1c(OCCCN2CCOCC2)ccc2c3n(c(=NC(=O)c4cnc(N)nc4)nc12)CCN3`: the viability, T/C by setting is: (compound 0.00316 µM) 103% and 116%; (compound 0.01 µM) 91% and 95.7%; (compound 0.0316 µM) 82.8% and 82.9%; (compound 0.1 µM) 75.8% and 72.9%; (compound 0.316 µM) 68.9% and 70.3%; (compound 1 µM) 66% and 72.5%. Further, for the setting “curve of compound”, the IC50 is over 1 µM.
As to `Cn1cnc2c(F)c(Nc3ccc(Br)cc3Cl)c(C(=O)NOCCO)cc21` + CC(C)NCC(C(=O)N1CCN(c2ncnc3c2C(C)CC3O)CC1)c1ccc(Cl)cc1, the IC50 is over 3 µM under setting [1]; over 3 µM under setting [2]; over 3 µM under setting [3]; over 3 µM under setting [4]; over 3 µM under setting [5]. The viability, T/C reads like this: (second compound 0.3 µM, first compound 0.00949 µM) 92.4%; (second compound 0.3 µM, first compound 0.03 µM) 82.1%; (second compound 0.3 µM, first compound 0.0949 µM) 80.9%; (second compound 0.3 µM, first compound 0.3 µM) 76.3%; (second compound 0.3 µM, first compound 0.949 µM) 68.9%; (second compound 0.3 µM, first compound 3 µM) 65.7%. Further, the viability, T/C is, setting by setting: (second compound 0.949 µM, first compound 0.00949 µM) 104%; (second compound 0.949 µM, first compound 0.03 µM) 97.4%; (second compound 0.949 µM, first compound 0.0949 µM) 81%; (second compound 0.949 µM, first compound 0.3 µM) 77.2%; (second compound 0.949 µM, first compound 0.949 µM) 67.9%; (second compound 0.949 µM, first compound 3 µM) 69.4%. Moreover, the viability, T/C is 102% (second compound 3 µM, first compound 0.00949 µM); 99.8% (second compound 3 µM, first compound 0.03 µM); 80.2% (second compound 3 µM, first compound 0.0949 µM); 68.2% (second compound 3 µM, first compound 0.3 µM); 72% (second compound 3 µM, first compound 0.949 µM); 63.3% (second compound 3 µM, first compound 3 µM). In addition, the viability, T/C runs as follows: (second compound 9.49 µM, first compound 0.00949 µM) 99.2%; (second compound 9.49 µM, first compound 0.03 µM) 91.7%; (second compound 9.49 µM, first compound 0.0949 µM) 83.9%; (second compound 9.49 µM, first compound 0.3 µM) 72%; (second compound 9.49 µM, first compound 0.949 µM) 70.5%; (second compound 9.49 µM, first compound 3 µM) 64.7%. Besides, the viability, T/C reads like this: (second compound 30 µM, first compound 0.00949 µM) 93.6%; (second compound 30 µM, first compound 0.03 µM) 89.7%; (second compound 30 µM, first compound 0.0949 µM) 85.4%; (second compound 30 µM, first compound 0.3 µM) 75.2%; (second compound 30 µM, first compound 0.949 µM) 69.5%; (second compound 30 µM, first compound 3 µM) 66.3%.
